Test results published in patent US9103833B2, “Use of the GTPase Rab27B to diagnose and treat poor prognosis estrogen-receptor-positive breast cancer” (Universiteit Gent, priority 2009, dated 2015).

How the values were obtained:
[1] = test system: cyclin A in MCF-7 GFP cells; assay: cyclin A expression with recombinant HSP90α, Western blot; format: cell-based, human; details: 10 μg/mL
Protocol: For Western blot analysis MCF-7 cells (1-10×10^6) were harvested in Laemmli lysis buffer (0.125 M Tris-HCl [pH=6.8], 10% glycerol, 2.3% SDS). Cell lysates (25 μg) and CM (20 μL) were suspended in 10 μL reducing sample buffer (1M Tris-HCl [pH=6.8], 30% glycerol, 6% SDS, 3% β-mercaptoethanol, 0.005% bromophenol blue) and boiled for 5 minutes at 95° C. Samples were run on NuPage 4-20% Bis-Tris gradient gels (Invitrogen), transferred to PVDF membranes, blocked in 5% non-fat milk in PBS with 0.5% Tween-20, and immunostained. Scanning densitometry was carried out with the Quantity One Program (Bio-Rad).

[2] = test system: MCF-7 cells; assay: type I collagen invasion assay with recombinant HSP90 proteins; format: cell-based, human; details: 24 hours
Protocol: (§1) For the type I collagen invasion assay, the following precooled components were gently combined and defined as type I collagen solution: four volumes of type I collagen (stock is 3.49 mg/mL), five volumes of calcium- and magnesium-free Hank's balanced salt solution, one volume of MEM (10×), one volume of 0.25 M NaHCO3, 2.65 volumes of culture medium and 0.3 volumes of 1 M NaOH. For each test-condition, 1.25 mL of type I collagen solution was added to one well of 6-well plate, homogeneously spread and gelified on a flat surface in a humidified atmosphere of 10% CO2 in air at 37° C. for at least one hour. […]
(§2) Cell morphology was studied and invasion was scored after 24 hours (De Wever et al., (44)). […] It was calculated as (perimeter)^2÷(4π area), which describes the deviation of an object from a geometric circle. […] The number of invasive and non-invasive cells was counted in ten randomly selected microscopic fields with a 20× objective and 10× eye piece by two blinded observers using an inverted phase contrast microscope (DMI 3000B, Leica, Wetzlar, Germany). The invasion index was calculated as the ratio of the number of cells that invaded the gel divided by the total number of cells counted in each field. […]

[3] = test system: MCF-7 GFP cells; assay: cell proliferation assay with recombinant HSP90α; format: cell-based, human; details: 10 μg/mL added to culture medium; P<0.001
Protocol: To examine whether Rab27B affects cell proliferation in a GTP-, geranylgeranyl-, and HSP90α-dependent manner, three sets of experiments were conducted: 1) proliferation rates of MCF-7 cells stably expressing GFP, GFP-Rab27B, GFP-Rab27B Q78L, GFP-Rab27B T23N, and GFP-Rab27B GER were compared; 2) proliferation rates of MCF-7 GFP-Rab27B cells transiently targeted with control or Rab27B siRNAs were studied; and 3) proliferation rates of MCF-7 GFP cells, treated with recombinant HSP90α, and MCF-7 GFP-Rab27B cells, challenged with control IgG or anti-HSP90α neutralizing antibody, were evaluated. To obtain a growth curve under each condition, triplicate wells of seeded cells were each counted five times. Two investigators independently counted the total number of cells in each well every 2 days for a total of 8 days with the use of a manual hemocytometer.

[4] = test system: MCF-7 GFP-Rab27B cells; assay: type I collagen invasion assay; format: cell-based; details: Homo sapiens, MCF7, 24 hours, MCF-7 GFP-Rab27B cells on type I collagen, P<0.001
Protocol: as §1, §2

Molecule: recombinant HSP90α: HSP90α recombinant protein obtained from Stressgen
- cyclin A expression [1]: increased cyclin A expression
- type I collagen invasion ([2]; 1-10 μg/mL recombinant protein, P=0.04 at 5 μg/mL, P=0.003 at 10 μg/mL): dose-dependent increase
- proliferation of MCF-7 cells [3]: increased proliferation

Molecule: COC1=C2C[C@@H](C)C[C@H](OC)[C@H](O)[C@@H](C)/C=C(\C)[C@H](OC(N)=O)[C@@H](OC)/C=C\C=C(/C)C(=O)NC(=CC1=O)C2=O [geldanamycin]
- inhibition at 1 µM [4]: 85 to 100%

Molecule: recombinant HSP90β: HSP90β recombinant protein obtained from Stressgen
- type I collagen invasion ([2]; 10 μg/mL recombinant protein): no effect
